# Source: US20030138864A1, “Method for identifying an enzyme to design anti-cancer compounds” (priority 2001, published 2003)
# pIC50: −log10 of the molar value. Counter-ions that a name gives are not always drawn. Like-named read-outs stand apart in the source and are kept apart here.
# Columns and labels:
# Type in all cases: cell-based
# [1] = system: HCT116: human colon cancer cell line; experiment: Growth inhibition (cytotoxicity, WST-8) of HCT116 cells expressing only a low level of microsomal dipeptidase; conditions: for IC50: drug exposure time, read-out: Cytotoxicity (IC50 in nM) HCT116
# Method: The activation of the compounds is mediated by microsomal dipeptidase. The inhibitory activities of the compounds is determined against growth of the cells expressing a low level of microsomal dipeptidase, those expressing a high level of microsomal dipeptidase, and granulocyte progenitors that are expanded ex vivo. […] A stable transfectant, HCT116/S5, into which the human microsomal dipeptidase cDNA (herafter called MDP) connected to the CMV promoter was transfected, is used as the cells expressing a high level of microsomal dipeptidase. […] HCT116, HCT116/S5, and granulocyte porogenitors are cultured in the absence and presence of the drugs. […] The IC50 values are determined and compared among HCT116, HCT116/S5, and granulocyte porogenitors.
# Transfection of the DNA was carried out by using TransIT-LT2 (PanVera, Madison, USA, Calatog No. MIR2320) according to the manufacturer's instruction. […] The cells that grew in the presence of 1 mg/ml G418 were collected and cultivated in MaCoy5A medium.
# By using 96-multi well plates, approximately 2×10^3 cells per well of the HCT116 bearing pRC/CMV and HCT116S5 carrying pRC/CMV-MDP were cultured in 200 μl of McCoy5A medium supplemented with 10% FBS in the presence or absence of the indicated concentrations of the drugs at 37° C. under 5% CO2 in humidified air. The cells were exposed to drugs for 24 hr (taxol, camptothecins and their prodrugs) or 96 hr (DMDC and its compounds). When the drug exposure time to the cells was 24 hr, culture medium containing drugs were removed, and the cells were washed and suspended in the fresh medium without drugs and further cultured at 37° C. under 5% CO2 in humidified air for the indicated days. […] To examine the effects of drugs on granulocyte progenitors, the granulocyte progenitors, which were expanded on a monolayer of MS-5 for 7 days, were collected and washed with RPMI1640 medium. Approximately 5000 cells were suspended in 200 μl of RPMI medium supplemented with 10% FBS and 50 ng/ml of G-CSF in the presence or absence of drugs and cultured in the presence of drugs for 24 hr (taxol, camptothecins and their prodrugs) or 7 days (DMDC and its prodrug) at 37° C. under 5% CO2 in humidified air. When the exposure time of drugs to the cells was 24 hr, the drugs were removed at 24 hr after addition of drugs by washing the cells with the above medium, and the cells were further cultured for 6 days in the same medium without drugs.
# [2] = system: HCT116/S5: HCT116 transfected with the human microsomal dipeptidase cDNA; experiment: Growth inhibition (cytotoxicity, WST-8) of HCT116/S5 cells expressing a high level of microsomal dipeptidase; conditions: for IC50: drug exposure time, read-out: Cytotoxicity (IC50 in nM) HCT116/S5
# Method: (§1) The activation of the compounds is mediated by microsomal dipeptidase. The inhibitory activities of the compounds is determined against growth of the cells expressing a low level of microsomal dipeptidase, those expressing a high level of microsomal dipeptidase, and granulocyte progenitors that are expanded ex vivo. The human colon cancer cell line, HCT116 (American Type Culture Collection No. CCL-247), and granulocyte progenitors are used as the cells expressing only a low level of microsomal dipeptidase. A stable transfectant, HCT116/S5, into which the human microsomal dipeptidase cDNA (herafter called MDP) connected to the CMV promoter was transfected, is used as the cells expressing a high level of microsomal dipeptidase. The dipeptidase cDNA (Satoh et al. Biotechnol. Prog. 10 (2), 134-140 (1994)) and other references) and the cloning procedures as mentioned are known in the art. HCT116, HCT116/S5, and granulocyte porogenitors are cultured in the absence and presence of the drugs. […] The IC50 values are determined and compared among HCT116, HCT116/S5, and granulocyte porogenitors. Although time duration of the exposure of the cells to the drugs varies depending on the cells and drugs, it can be 24 hr, 96 or 168 hr.
# Transfection of the DNA was carried out by using TransIT-LT2 (PanVera, Madison, USA, Calatog No. MIR2320) according to the manufacturer's instruction. The resulting transfectants were cultivated in MaCoy5A medium (Sigma, St Louis, USA, Catalog No. M8403) supplemented with 10% (v/v) fetal bovine serum and 1 mg/ml of geneticin disulfate (Wako, Osaka, Japan, Catalog No. 535-24624). The cells that grew in the presence of 1 mg/ml G418 were collected and cultivated in MaCoy5A medium.
# By using 96-multi well plates, approximately 2×10^3 cells per well of the HCT116 bearing pRC/CMV and HCT116S5 carrying pRC/CMV-MDP were cultured in 200 μl of McCoy5A medium supplemented with 10% FBS in the presence or absence of the indicated concentrations of the drugs at 37° C. under 5% CO2 in humidified air. The cells were exposed to drugs for 24 hr (taxol, camptothecins and their prodrugs) or 96 hr (DMDC and its compounds). When the drug exposure time to the cells was 24 hr, culture medium containing drugs were removed, and the cells were washed and suspended in the fresh medium without drugs and further cultured at 37° C. under 5% CO2 in humidified air for the indicated days. Then, 10 μl of WST-8 (Cell Counting Kit-8, Wako, Osaka, Japan, Catalog No.343-07623) were added to the cultures, and the cells were further incubated at 37° C. for 1 or 2 hr. Cell growth inhibition was calculated as IC50 values according to optical densities at 450 nm and at 655 nm. To examine the effects of drugs on granulocyte progenitors, the granulocyte progenitors, which were expanded on a monolayer of MS-5 for 7 days, were collected and washed with RPMI1640 medium. Approximately 5000 cells were suspended in 200 μl of RPMI medium supplemented with 10% FBS and 50 ng/ml of G-CSF in the presence or absence of drugs and cultured in the presence of drugs for 24 hr (taxol, camptothecins and their prodrugs) or 7 days (DMDC and its prodrug) at 37° C. under 5% CO2 in humidified air. When the exposure time of drugs to the cells was 24 hr, the drugs were removed at 24 hr after addition of drugs by washing the cells with the above medium, and the cells were further cultured for 6 days in the same medium without drugs. Therafter, 20 μl of WST-1 (Roche Diagnostics, Mannheim, Germany, Catalog No. 1644807) were added to the cultures, and the cells were further incubated at 37° C. for 6 hr. Cell growth inhibition was calculated as IC50 values according to optical densities at 450 nm and at 655 nm.
# [3] = system: CFU-GM: human bematopoietic progenitor cells; experiment: Growth inhibition (cytotoxicity, WST-1) of granulocyte progenitors expanded ex vivo (CFU-GM); conditions: for IC50: drug exposure time, read-out: Cytotoxicity (IC50 in nM) CFU-GM
# Method: as §1
# CD34-positive mononuclear cells derived from the human umbilical cord blood and bone marrow (Veritas Co, Tokyo, Japan, Catalog No.CB009F, ABM019F) were cultured on a confluent monolayer of MS5 (Itoh, K., et al. Reproducible establishment of hematopoietic supportive stromal cells from murine bone marrow. Exp. Hematol. 17, 145-153 (1989)). Mouse stromal cell lines in alpha MEM medium (Life Technologies, Gaithersburg, USA, Catalog No.12571-0063) supplemented with 10% (v/v) horse serum (HS) (Stem Cell Technologies, Vancouver, Canada, Catalog No. 06750), 10% (v/v) fetal bovine serum (FBS) (Stem Cell Technologies, Vancouver, Canada, Catalog No.06450), 50 ng/ml Flt3 ligand (PeproTec EC., London, UK., Catalog No. 300-19), 100 ng/ml SCF (PeproTech EC, London, UK., Catalog No. 300-07), and 50 ng/ml TPO (PeproTech EC, London, England, Catalog No. 300-18) at 37° C. under 5% CO2 in humidified air. Floating hematopoietic cells were collected and stained by monoclonal antibodies against PerCP-anti-CD34 (BD pharMingen, San Diego, USA, Catalog No.340430), PE-anti-CD13 (BD pharMingen, San Diego, USA, Catalog No. 30525X) and FlTC-anti-15(BD pharMingen, SanDiego, USA, Catalog No. PM30525X). Five microlitter of each antibody was added to a […] of cell suspension and incubated at 4° C. for 25 min. After washing with PBS containing 10% (v/v) FCS, the expression of CD antigens were detected by using FACSCalibur (Becton Dickinson, Franklin Lakes, N.J., USA) according to the FACSCalibur Traing mannual (FACStation ver1.1. Becton Dickinson, Franklin Lakes, N.J., USA.). […]
# [4] = 24 hr, then drug removed and cells cultured further
# [5] = 24 hr, then cultured for 6 days without drugs
Structure (SMILES),pIC50 [3],"IC50 [1, 4]","IC50 [2, 4]","IC50 [3, 5]",further results
C=C1C(n2ccc(NC(=O)CC[C@@H](NC(=O)[C@@H](N)Cc3ccc(-c4ccccc4)cc3)C(=O)O)nc2=O)O[C@H](CO)[C@H]1O (stereo partly shown) [Example 16],,,,,IC50 ([1]; 96 hr): 1.7 nM; IC50 ([2]; 96 hr): 0.23 nM; IC50 ([3]; 168 hr (7 days)): 2.8 nM
"C=C1C(n2ccc(NC(=O)CC[C@@H](NC(=O)[C@@H](N)Cc3ccc4ccccc4c3)C(=O)O)nc2=O)O[C@H](CO)[C@H]1O (stereo partly drawn) [Example 17, (2R)-((2S)-Amino-3-naphthalen-2-ylpropionylamino)-4-[1-((4S)-hydroxy-(5R)-hydroxymethyl-3-methylenetetrahydrofuran-2-yl)-2-oxo-1,2-dihydropyrimidin-4-ylcarbamoyl]butyric acid]",8.96,,,,pIC50 [1]: 9.00; pIC50 [2]: 10.01
"CC[C@@]1(OC(=O)CC[C@@H](NC(=O)[C@H](N)Cc2c[nH]c3ccccc23)C(=O)O)C(=O)OCc2c1cc1n(c2=O)Cc2cc3ccccc3nc2-1 [Example 31, 20-O—[(R)-tryptophyl-γ-(R)-glutamyl]-20(S)-camptothecin hydrochloride]",4.74,3 nM,,,
"CCc1c2c(nc3ccc(O)cc13)-c1cc3c(c(=O)n1C2)COC(=O)[C@@]3(CC)OC(=O)CC[C@@H](NC(=O)[C@@H](N)Cc1ccccc1)C(=O)O [Example 39, 7-ethyl-10-hydroxy-20-O—[(S)-phenylalanyl-γ-(R)-glutamyl]-20(S)-camptothecin hydrochloride]",7.70,23 nM,2.8 nM,,
"CCCCCN1C=Nc2cccc3nc4c(c1c23)Cn1c-4cc2c(c1=O)COC(=O)[C@@]2(CC)OC(=O)CC[C@H](NC(=O)[C@@H](N)Cc1c[nH]c2ccccc12)C(=O)O [Example 49-1, (9S)-9-ethyl-9-[(L)-tryptophyl-(L)-γ-glutamyloxy]-1-pentyl-1H,12H-pyrano[3″,4″:6′,7′]indolizino[1′,2′:6,5]pyrido[4,3,2-de]quinazoline-10,13(9H,15H)-dione hydrochloride]",,33 nM,3.3 nM,61 nM,
"CCCCCN1C=Nc2c3c(nc4cccc1c24)-c1cc2c(c(=O)n1C3)COC(=O)[C@@]2(CC)OC(=O)CC[C@@H](NC(=O)[C@@H](N)CC1CCCCC1)C(=O)O [Example 49-2, (9S)-9-ethyl-9-[(L)-cyclohexylalanyl-(D)-γ-glutamyloxy]-1-pentyl-1H,12H-pyrano[3″,4″:6′,7′]indolizino[1′,2′:6,5]pyrido[4,3,2-de]quinazoline-10,13(9H,15H)-dione hydrochloride]",,18 nM,2.6 nM,31 nM,
"CCCCCN1C=Nc2cccc3nc4c(c1c23)Cn1c-4cc2c(c1=O)COC(=O)[C@@]2(CC)OC(=O)CC[C@@H](NC(=O)[C@@H](N)Cc1ccccc1)C(=O)O [Example 49-3, (9S)-9-ethyl-9-[(L)-phenylalanyl-(D)-γ-glutamyloxy]-1-pentyl-1H,12H-pyrano[3″,4″:6′,7′]-indolizino[1′,2′:6,5]pyrido[4,3,2-de]quinazoline-10,13(9H,15H)-dione hydrochloride]",,> 50 nM,2.9 nM,250 nM,
"CCCCCN1C=Nc2cccc3nc4c(c1c23)Cn1c-4cc2c(c1=O)COC(=O)[C@@]2(CC)OC(=O)CC[C@@H](NC(=O)[C@@H](N)CC(C)C)C(=O)O [Example 49-4, (9S)-9-ethyl-9-[(L)-leucyl-(D)-γ-glutamyloxy]-1-pentyl-1H,12H-pyrano[3″,4″:6′,7′]-indolizino[1′,2′:6,5]pyrido[4,3,2-de]quinazoline-10,13(9H,15H)-dione hydrochloride]",,15 nM,2.1 nM,,
"CCCCCN1C=Nc2c3c(nc4cccc1c24)-c1cc2c(c(=O)n1C3)COC(=O)[C@@]2(CC)OC(=O)C[C@@H](NC(=O)[C@@H](N)CC1CCCCC1)C(=O)O [Example 49-11, (9S)-9-ethyl-9-[(L)-cyclohexylalanyl-(D)-β-aspartyloxy]-1-pentyl-1H,12H-pyrano[3″,4″:6′,7′]indolizino[1′,2′:6,5]pyrido[4,3,2-de]quinazoline-10,13(9H,15H)-dione hydrochloride]",,> 50 nM,13 nM,120 nM,
"CCc1c2c(nc3ccc(O)cc13)-c1cc3c(c(=O)n1C2)COC(=O)[C@]3(O)CC [SN 38, reference compound]",,3.7 nM,2.2 nM,1.8 nM,
